US5519049A, “Macrolides for the treatment of reversible obstructive airways diseases” (Fisons plc, priority 1989, dated 1996)

Legend:
[1] = test system: ddy mice; assay: Acute intraperitoneal toxicity study; type: in vivo; details: 100 mgkg^-1
[2] = test system: antigen-induced bronchial hyper-responsiveness to acetylcholine; assay: Assay for antigen-induced bronchial hyper-responsiveness to acetylcholine (PC200-Ach); type: in vivo, inhalation-sensitized male Hartley guinea pigs; details: oral pretreatment every other day, 1 mgml^-1 solution, n = 7, result in words (table title)
Method: (§1) Assay for inhibitory activity against respiratory resistance and antigen-induced bronchial hyper-responsiveness
(§2) Male Hartley guinea pigs (weighing about 300 g) were each placed in a plastic inhalation chamber. Using an ultrasonic nebulizer (NEU10B, Omron Corporation), an aerosolized solution of ovalbumin in physiological saline (10 mgml^-1) was introduced into the chamber for 10 minutes daily for 10 consecutive days to effect sensitization. The animals were used in the experiments 5 days after establishment of sensitization.
During the period from the first day of sensitization to the day before an antigen challenge, the animals were orally treated with a 1 mgml^-1 solution of FR-900506 (in ethanol/olive oil [2:78 v/v]) every other day. Control animals received the ethanol/olive oil vehicle alone in the same manner. […]
Guinea pigs prepared by the method described above were placed in an animal box as described above and the baseline respiratory resistance was measured. […] From the concentration-resistance curve constructed from the acetylcholine concentration and respiratory resistance data, the acetylcholine concentration necessary for increasing the respiratory resistance to twice the baseline value [i.e. PC200 -Ach (μgml^-1)] was calculated.
(§3) The results are expressed as mean ±SEM. […]

[3] = test system: respiratory resistance; assay: Assay for respiratory resistance (inhibitory activity after antigen inhalation challenge, oscillation method); type: in vivo, inhalation-sensitized male Hartley guinea pigs; details: oral pretreatment every other day, 1 mgml^-1 solution; n = 7; after ovalbumin inhalation challenge; result in words (table title)
Method: as §1, §2
During the period from the first day of sensitization to the day before an antigen challenge, the animals were orally treated with a 1 mgml^-1 solution of FR-900506 (in ethanol/olive oil [2:78 v/v]) every other day. Control animals received the ethanol/olive oil vehicle alone in the same manner.
The experimental period was 5 days from day 1 to day 5, and the inhalation challenge with the antigen was given on day 2.
On day 1, and 30 minutes before antigen inhalation challenge on day 2, metopirone (an endogenous cortisol synthesis inhibitor) was intravenously administered (10 mgkg^-1). So that the animals could tolerate the antigen at comparatively high concentrations, chlorpheniramine maleate, an antihistaminic, was intraperitoneally administered (10 mgkg^-1) following the second dose of metopirone. […]
as §3

Structure (SMILES): C=CC[C@@H]1/C=C(\C)C[C@H](C)C[C@H](OC)[C@H]2O[C@@](O)(C(=O)C(=O)N3CCCC[C@H]3C(=O)O[C@H](/C(C)=C/[C@@H]3CC[C@@H](O)[C@H](OC)C3)[C@H](C)[C@@H](O)CC1=O)[C@H](C)C[C@@H]2OC [FR-900506]
- Acute intraperitoneal toxicity, deaths [1]: no deaths
- Inhibitory effect on antigen induced hyper-responsiveness to acetylcholine [2]: Inhibitory effect
- Inhibitory effect on respiratory resistance [3]: Inhibitory effect
